According to paper PMC12274840 (The Journal of Biological Chemistry, 2025):
Converted amounts (≈) assume the structure as drawn. Where two headings read alike, the source gives them in different places.

Columns and labels:
[1] = test system: E. coli KA797 cells carrying NmcA position 105 library; format: cell-based
[2] = test system: E. coli KA797 cells carrying pUK21 with NmcA (pelB/Sec); assay: microbe, parasite or virus in culture; format: cell-based; details: Escherichia coli, antibiotic alone
[3] = test system: E. coli KA797 cells carrying CTX-M-14 position 105 library; format: cell-based
[4] = test system: E. coli KA797 cells carrying BlaC position 105 library; format: cell-based, Escherichia coli; details: ceftriaxone; for Fi CEF AVG: average of replicates; for Fi CEF 1: replicate 1
[5] = test system: E. coli KA797 cells carrying TEM-1 position 105 library; format: cell-based; details: for Fi CEF AVG: average of replicates
[6] = test system: E. coli KA797 cells carrying pUK21 with BlaC WT (Tat); assay: microbe, parasite or virus in culture; format: cell-based; details: Escherichia coli, antibiotic alone
[7] = test system: E. coli KA797 cells carrying pUK21 with CTX-M-14 WT (Tat); assay: microbe, parasite or virus in culture; format: cell-based; details: Escherichia coli, antibiotic alone
[8] = test system: E. coli KA797 cells carrying pUK21 vector without the β-lactamase gene; assay: microbe, parasite or virus in culture; format: cell-based; details: Escherichia coli
[9] = test system: CC1(C)S[C@@H]2[C@H](NC(=O)C(C(=O)O)c3ccccc3)C(=O)N2[C@H]1C(=O)O; assay: purified protein, by the assay type; details: pH 6.4; 25.0 °C
[10] = test system: O=C(Cc1cccs1)N[C@@H]1C(=O)N2C(C(=O)O)=C(/C=C/c3ccc([N+](=O)[O-])cc3[N+](=O)[O-])CS[C@H]12; assay: purified protein, by the assay type; details: pH 6.4; 25.0 °C
[11] = test system: CC1(C)S[C@@H]2[C@H](NC(=O)C(C(=O)O)c3ccccc3)C(=O)N2[C@H]1C(=O)O; assay: purified protein, by the assay type; details: pH 6.4; 25.0 °C; remark: listed apart in the source
[12] = test system: CC1(C)S[C@@H]2[C@H](NC(=O)[C@H](N)c3ccccc3)C(=O)N2[C@H]1C(=O)O; assay: purified protein, by the assay type; details: pH 6.4; 25.0 °C

CO/N=C(\C(=O)N[C@@H]1C(=O)N2C(C(=O)O)=C(CSc3nc(=O)c(=O)[nH]n3C)CS[C@H]12)c1csc(N)n1 [ceftriaxone]
Fi AVG (average fitness of replicates) ([1]; NmcA AA 105 Asp): 0.078 | Fi AVG (average fitness of replicates) ([1]; NmcA AA 105 Cys): 0.046 | Fi AVG (average fitness of replicates) ([1]; NmcA AA 105 Glu): 0.057 | Fi AVG (average fitness of replicates) ([1]; NmcA AA 105 Lys): 0.077 | Fi AVG (average fitness of replicates) ([1]; NmcA AA 105 Phe): 0.046 | Fi AVG (average fitness of replicates) ([1]; NmcA AA 105 Pro): 0.055 | Fi AVG (average fitness of replicates) ([1]; NmcA AA 105 Trp): 0.226 | Significance of average fitness ([1]; NmcA AA 105 Trp): + | WT abs Fi 1 (absolute fitness) ([1]; NmcA WT, replicate 1): 0.029 | WT abs Fi 2 (absolute fitness) ([1]; NmcA WT, replicate 2): -0.00378 | WT abs Fi 3 (absolute fitness) ([1]; NmcA WT, replicate 3): -0.101 | MIC [2]: 0.2 µg/mL (≈ 0.361 µM) | Significance of average fitness ([3]; CTX-M-14 AA 105 Ala): - | Significance of average fitness ([3]; CTX-M-14 AA 105 Arg): - | Significance of average fitness ([3]; CTX-M-14 AA 105 Asn): - | Significance of average fitness ([3]; CTX-M-14 AA 105 Asp): - | Significance of average fitness ([3]; CTX-M-14 AA 105 Cys): - | Significance of average fitness ([3]; CTX-M-14 AA 105 Gln): - | Significance of average fitness ([3]; CTX-M-14 AA 105 Glu): - | Significance of average fitness ([3]; CTX-M-14 AA 105 Gly): - | Significance of average fitness ([3]; CTX-M-14 AA 105 His): - | Significance of average fitness ([3]; CTX-M-14 AA 105 Ile): - | Significance of average fitness ([3]; CTX-M-14 AA 105 Leu): - | Significance of average fitness ([3]; CTX-M-14 AA 105 Lys): - | Significance of average fitness ([3]; CTX-M-14 AA 105 Met): - | Significance of average fitness ([3]; CTX-M-14 AA 105 Phe): - | Significance of average fitness ([3]; CTX-M-14 AA 105 Pro): - | Significance of average fitness ([3]; CTX-M-14 AA 105 Ser): - | Significance of average fitness ([3]; CTX-M-14 AA 105 Thr): - | Significance of average fitness ([3]; CTX-M-14 AA 105 Trp): + | Significance of average fitness ([3]; CTX-M-14 AA 105 Val): - | WT abs Fi 1 (absolute fitness of wild type, Replicate 1) ([3]; CTX-M-14 WT (Tyr 105)): 0.241 | WT abs Fi 2 (absolute fitness of wild type, Replicate 2) ([3]; CTX-M-14 WT (Tyr 105)): 0.256 | Fi CEF AVG ([4]; AA 105 Arg): 0.035 | Fi CEF 1 ([4]; AA 105 Arg): 0.040 | Fi CEF 2 ([4]; AA 105 Arg, replicate 2): 0.029 | Fi CEF AVG ([4]; AA 105 Cys): 0.035 | Fi CEF 1 ([4]; AA 105 Cys): 0.020 | Fi CEF 2 ([4]; AA 105 Cys, replicate 2): 0.049 | Fi CEF 2 ([4]; AA 105 Gly, replicate 2): -0.00224 | Fi CEF AVG ([4]; AA 105 His): 0.032 | Fi CEF 1 ([4]; AA 105 His): 0.007 | Fi CEF 2 ([4]; AA 105 His, replicate 2): 0.057 | Fi CEF AVG ([4]; AA 105 Ile (WT)): 0.000 | Fi CEF 1 ([4]; AA 105 Ile (WT)): 0.000 | Fi CEF 2 ([4]; AA 105 Ile (WT), replicate 2): 0.000 | Fi CEF AVG ([4]; AA 105 Leu): 0.017 | Fi CEF 1 ([4]; AA 105 Leu): 0.023 | Fi CEF 2 ([4]; AA 105 Leu, replicate 2): 0.011 | Fi CEF AVG ([4]; AA 105 Lys): -0.009 | Fi CEF 2 ([4]; AA 105 Lys, replicate 2): -0.009 | Fi CEF AVG ([4]; AA 105 Met): 0.036 | Fi CEF 1 ([4]; AA 105 Met): 0.064 | Fi CEF 2 ([4]; AA 105 Met, replicate 2): 0.008 | Fi CEF AVG ([4]; AA 105 Phe): 0.008 | Fi CEF 1 ([4]; AA 105 Phe): -0.000834 | Fi CEF 2 ([4]; AA 105 Phe, replicate 2): 0.017 | Fi CEF AVG ([4]; AA 105 Ser): -0.011 | Fi CEF 1 ([4]; AA 105 Ser): -0.00266 | Fi CEF AVG ([4]; AA 105 Trp): 0.038 | Fi CEF 1 ([4]; AA 105 Trp): 0.042 | Fi CEF 2 ([4]; AA 105 Trp, replicate 2): 0.034 | Fi CEF 1 ([4]; AA 105 Val): 0.004 | WT abs Fi 2 ([4]; WT (Ile 105) absolute fitness, replicate 2): -0.008 | Fi CEF 2 ([5]; AA 105 Ala, replicate 2): -0.112 | Fi CEF 3 ([5]; AA 105 Ala, replicate 3): 0.013 | Fi CEF 2 ([5]; AA 105 Asn, replicate 2): -0.107 | Fi CEF 3 ([5]; AA 105 Asn, replicate 3): -0.034 | Fi CEF 1 ([5]; AA 105 Asp, replicate 1): 0.596 | Fi CEF AVG ([5]; AA 105 Cys): 0.087 | Fi CEF 1 ([5]; AA 105 Cys, replicate 1): 0.906 | Fi CEF AVG ([5]; AA 105 Gln): 0.078 | Fi CEF 1 ([5]; AA 105 Gln, replicate 1): 0.356 | Fi CEF 2 ([5]; AA 105 Gln, replicate 2): -0.028 | Fi CEF 3 ([5]; AA 105 Gln, replicate 3): -0.095 | Fi CEF 1 ([5]; AA 105 Glu, replicate 1): 0.340 | Fi CEF 2 ([5]; AA 105 Glu, replicate 2): -0.099 | Fi CEF AVG ([5]; AA 105 Gly): 0.067 | Fi CEF 1 ([5]; AA 105 Gly, replicate 1): 0.338 | Fi CEF 2 ([5]; AA 105 Gly, replicate 2): -0.077 | Fi CEF 3 ([5]; AA 105 Gly, replicate 3): -0.061 | Fi CEF AVG ([5]; AA 105 Leu): 0.072 | Fi CEF 1 ([5]; AA 105 Leu, replicate 1): 0.332 | Fi CEF 2 ([5]; AA 105 Leu, replicate 2): 0.047 | Fi CEF AVG ([5]; AA 105 Lys): 0.057 | Fi CEF 3 ([5]; AA 105 Lys, replicate 3): 0.102 | Fi CEF AVG ([5]; AA 105 Phe): 0.182 | Fi CEF 2 ([5]; AA 105 Phe, replicate 2): 0.022 | Fi CEF 3 ([5]; AA 105 Phe, replicate 3): 0.240 | Fi CEF AVG ([5]; AA 105 Pro): 0.130 | Fi CEF 1 ([5]; AA 105 Pro, replicate 1): 0.375 | Fi CEF 2 ([5]; AA 105 Pro, replicate 2): -0.060 | Fi CEF 3 ([5]; AA 105 Pro, replicate 3): 0.074 | Fi CEF AVG ([5]; AA 105 Ser): 0.105 | Fi CEF 3 ([5]; AA 105 Ser, replicate 3): 0.208 | Fi CEF AVG ([5]; AA 105 Trp): 0.125 | Fi CEF 1 ([5]; AA 105 Trp, replicate 1): 0.969 | Fi CEF 2 ([5]; AA 105 Tyr, replicate 2): 0.000 | Fi CEF 3 ([5]; AA 105 Tyr, replicate 3): 0.000 | WT abs Fi 1 ([5]; absolute fitness of TEM-1 WT, CEF, replicate 1): -0.283 | WT abs Fi 2 ([5]; absolute fitness of TEM-1 WT, CEF, replicate 2): 0.276 | WT abs Fi 3 ([5]; absolute fitness of TEM-1 WT, CEF, replicate 3): 0.176 | MIC [6]: 0.2 µg/mL (≈ 0.361 µM) | MIC [7]: 1600 µg/mL (≈ 2890 µM) | MIC [8]: 0.1 µg/mL (≈ 0.18 µM)

(Escherichia coli)
Km [9]: 10.0 ± 0.7 µM | kcat [9]: 92 ± 2 s⁻¹ | kcat/Km [9]: 9.15e+06 ± 660000 M⁻¹ s⁻¹ | Km [10]: 79 ± 1 µM | kcat [10]: 576 ± 5 s⁻¹ | kcat/Km [10]: 7.31e+06 ± 80000 M⁻¹ s⁻¹ | Km [11]: 20 ± 2 µM | kcat [11]: 31 ± 2 s⁻¹ | kcat/Km [11]: 1.55e+06 ± 180000 M⁻¹ s⁻¹ | Km [12]: 76 ± 2 µM | kcat [12]: 103 ± 1 s⁻¹ | kcat/Km [12]: 1.36e+06 ± 80000 M⁻¹ s⁻¹
